The text below walks through data of patent US20240377399A1, “COMPOSITIONS AND METHODS FOR MODULATING HYDROXYLATION OF ACC2 BY PHD3” (President and Fellows of Harvard College, priority 2015, published 2024).

The subject of assay [1] is MOLM14 cells. Briefly: Palmitate oxidation (FAO assay). Format: cell-based, human. Particulars: S2E 50 μM for 3 days; 3 h incubation with radiolabeled palmitate. The protocol:
FIG. 15 includes 10 panels, FIGS. 15A-J, showing PHD3 modulation in leukemia cell lines. FIG. 15A, PHD3 expression in MOLM14 and THP1 cells following stable overexpression of vector or PHD3 (n=3). FIG. 15B, Palmitate oxidation in HepG2 cells treated with etomoxir during the 2 h FAO assay (100 μM, n=3). FIG. 15C and FIG. 15D, PHD3 expression and growth curves in K562 cells following stable overexpression of PHD3 or vector (n=3). FIG. 15E, Growth curves of K562 cells stably expressing shRNA against PHD3 or control (n=3). FIG. 15F, Colony formation assay with K562 cells stably expressing shRNA against PHD3 or non-silencing control. Colony forming units (CFU) were counted 10 days after plating (n=2). FIG. 15G, Representative images from colony formation assays with K562 cells stably expressing shRNA against PHD3 or non-silencing control. Colonies were imaged on day 10 using an inverted microscope (Nikon Eclipse Ti-U) at 200× magnification and SPOT camera software 5.0. […] MOLM14 cells were incubated with S2E (50 μM) or vehicle for 3 days. FAO was measured following 3 h incubation with radiolabeled palmitate in the presence of S2E or vehicle. FIG. 151, PHD3 expression in MOLM14 cells following stable overexpression of vector or PHD3 (n=3). […]

Assay [2] has as its system MOLM14 cells. Briefly: Cell growth (cell counting at 72 h) following PHD3 overexpression. Format: cell-based, human. Particulars: PHD3-overexpressing MOLM14; S2E 50 μM or metformin 1 mM. From the text:
FIG. 12B, Growth curves of MOLM14 and THP1 cells stably overexpressing vector or PHD3 (n=3). FIG. 12C, ATP CellTiter-Glo analysis in MOLM14 and THP1 cells stably overexpressing vector or PHD3 (n=4). FIG. 12D, Colony formation assay with MOLM14 and THP1 cells stably overexpressing vector or PHD3. Colony forming units (CFU) were counted 8 days after plating MOLM14 and 20 days after plating THP1 (n=3). FIG. 12E, Representative images from colony formation assays with MOLM14 or THP1 cells stably overexpressing vector or PHD3. MOLM14 colonies were imaged on day 8 and THP1 colonies imaged on day 20 using an inverted microscope (Nikon Eclipse Ti-U) at 200× magnification and SPOT camera software 5.0. FIG. 12F, Immunoblot showing HA-PHD3 overexpression in K562 cells. FIG. 12G and FIG. 12H, Colony formation assay and representative images from K562 cells stably expressing PHD3 or vector. CFU were counted and imaged 10 days after plating (n=3). […] Following FACS to collect PI-negative cells, 8000 cells were plated per well of a 96-well plate, and cell number at 72 h was determined by cell counting (n=3). […] Colony formation was assessed in MOLM14 cells stably overexpressing vector or PHD3 in the presence or absence of metformin (Met, 1 mM). CFU were counted 8 days after plating (n=2). […]

A further assay addresses T1, ACC2 (Homo sapiens, UniProt O00763).
T1 construct: expressed in transfected cells; host or cells: 293T cells, whole-cell lysate (50 ug protein per reaction)
Briefly: ACC activity assay in 293T cell lysates. Particulars: lysates overexpressing ACC2; citrate 2 mM. Type of assay: biochemical. On the procedure: ACC activity assay. Reactions were performed as previously described, with the exception of using 16.7 mM MgCl2 instead. 50 μg protein lysate was used for each reaction. Following addition of 1 N HCl to quench reactions and convert remaining [^14C]bicarbonate (American Radiolabeled Chemicals) to CO2, reactions were evaporated 2 hours at 600 and 15 min at 850 in a thermo shaker. ACC activity was calculated as incorporation of [^14C]bicarbonate into [^14C]malonyl CoA (the acid and heat stable product) as measured by scintillation counting.

For a further assay, the system named is 293T cells. The experiment in a line: Palmitate oxidation (FAO assay). Type of assay: cell-based, human. Particulars: low glucose, serum-free medium supplemented 5 mM for 6 h; PHD3-dependent. On the procedure: FIG. 10C is a photograph of an immunoblot showing 293T cells stably expressing shRNA against PHD3 or non-targeting control were incubated 12 h in high or low nutrient media prior to analyzing ACC hydroxylation by IP and immunoblot. FIG. 10D is a photograph of an immunoblot showing ACC hydroxylation dynamically responds to cellular nutrient cues. WT immortalized MEFs were incubated in high (4.5 g/L glucose DMEM with serum) or low (1 g/L glucose DMEM without serum) nutrient medium for 6 h, or in low nutrient medium for 6 h followed by adding back high nutrient medium for 5 or 10 min. ACC was immunoprecipitated in lysis buffer containing the PHD inhibitor DMOG (1 mM) to minimize further hydroxylation in the lysis buffer. Hydroxylation was detected by immunoblot. FIG. 10E is a bar graph showing the impact of PHD3 knockdown on the ability of immortalized MEFs to modulate palmitate oxidation levels in response to low or high nutrient medium (n=3). […] FIG. 10G is a bar graph showing short, medium and long chain acylcarnitine levels as measured by metabolomics analysis of 293T cells grown in high nutrient medium following stable knockdown with shRNA against PHD3 or control. […]

A further assay deals with HepG2 cells. Briefly: Palmitate oxidation (FAO assay). Particulars: etomoxir 100 μM during the 2 h FAO assay; figure printed for PHD3 overexpression, etomoxir stated to achieve a similar level. Type of assay: cell-based, human. On the procedure: Fatty acid oxidation. For FAO assays, cells in 12 well-plates were pre-incubated with 100 µM palmitate or hexanoate and 1 mM carnitine for 4 hr in serum-free low glucose media, unless otherwise noted. Cells were then changed to 600 l media containing 1 μCi [9,10(n)-^3H]palmitic acid (GE Healthcare) or 1.8 μCi n-[5,6-^3H]hexanoic acid (American Radiolabeled Chemicals) and 1 mM carnitine for 2 hr. The medium was collected and eluted in columns packed with DOWEX 1X2-400 ion exchange resin (Sigma) to analyze the released ^3H20, formed during oxidation of [3H]palmitate. FAO in complete media indicates media including serum was used for pre-incubation and FAO analysis. Basal FAO indicates cells were not pre-incubated with fatty acids prior to FAO analysis. For all FAO experiments, counts per minute (CPM) were normalized to protein content in cell lysates.

The subject of a further assay is KU812. Briefly: Leukemia cell viability by PI staining after 96 hr drug treatment. Type of assay: cell-based, human. Particulars: low-PHD3 CML cell line; 96 hr treatment with etomoxir. On the procedure:
(§1) Drug treatment and PI staining. Cells were treated 96 hr with a range of doses of etomoxir (Cayman Chemical) or ranolazine dihydrochloride (VWR/Selleck Chemicals) or vehicle. Fresh etomoxir was spiked in at 24, 48 and 72 hr. Fresh ranolazine was spiked in at 48 hr. Dosing schedules were determined by identifying the minimum number of times drug must be re-added to observe an effect on cell viability. Cell viability at 96 hr was determined by staining cells with 1 µg/ml propidium iodide (Sigma) in PBS and flow cytometry on the BD LSR-II analyzer.

For a further assay, the system named is low-PHD3 leukemia cells. The assay is described as above. Format: cell-based, human. Conditions: 96 hr treatment, ranolazine 0-500 μM or etomoxir 0-200 μM. On the procedure:
as §1

Assay [3] concerns MOLM14 cells. Briefly: Colony formation assay (soft agar). Conditions: for colony formation (growth): PHD3-overexpressing MOLM14, metformin 1 mM, CFU counted 8 days after plating. Format: cell-based, human. An excerpt: FIG. 12B, Growth curves of MOLM14 and THP1 cells stably overexpressing vector or PHD3 (n=3). FIG. 12C, ATP CellTiter-Glo analysis in MOLM14 and THP1 cells stably overexpressing vector or PHD3 (n=4). FIG. 12D, Colony formation assay with MOLM14 and THP1 cells stably overexpressing vector or PHD3. Colony forming units (CFU) were counted 8 days after plating MOLM14 and 20 days after plating THP1 (n=3). FIG. 12E, Representative images from colony formation assays with MOLM14 or THP1 cells stably overexpressing vector or PHD3. MOLM14 colonies were imaged on day 8 and THP1 colonies imaged on day 20 using an inverted microscope (Nikon Eclipse Ti-U) at 200× magnification and SPOT camera software 5.0. FIG. 12F, Immunoblot showing HA-PHD3 overexpression in K562 cells. FIG. 12G and FIG. 12H, Colony formation assay and representative images from K562 cells stably expressing PHD3 or vector. CFU were counted and imaged 10 days after plating (n=3). […] Cells were treated with S2E (50 μM, Sigma), metformin (1 mM, Sigma) or vehicle following viral infection with PHD3 and throughout the duration of the experiment. Infected cells were selected with puromycin. Following FACS to collect PI-negative cells, 8000 cells were plated per well of a 96-well plate, and cell number at 72 h was determined by cell counting (n=3). […] Colony formation was assessed in MOLM14 cells stably overexpressing vector or PHD3 in the presence or absence of metformin (Met, 1 mM). CFU were counted 8 days after plating (n=2). FIG. 12K, qPCR analysis of PHD3 gene expression in primary human CD34+ cells from bone marrow filtrate of a healthy donor or AML patient samples (690a, 2093 and 2266). PPIA was used as a reference gene. FIG. 12L, ATP CellTiter-Glo analysis of cell viability in AML patient samples following stable overexpression of empty vector or PHD3 (n=4).

For the next assay, the system named is K562 leukemia cells. Briefly: Leukemia cell viability by PI staining after 96 hr drug treatment. Particulars: high-PHD3 CML line, 96 hr treatment, ranolazine 0-500 μM or etomoxir 0-200 μM. Type of assay: cell-based, human. On the procedure:
as §1

The subject of another assay is MEGO1. The description is as above. Type of assay: cell-based, human. Conditions: high-PHD3 CML cell line, high dose of ranolazine, compared to low-PHD3 AML cells. The protocol: as §1
The next assay has as its target recombinant PHD3 (Homo sapiens, UniProt Q9H6Z9). Briefly: In vitro hydroxylation assay with ACC2 peptides. Type of assay: biochemical. Particulars: 12.5 nmol synthetic peptide; radioactivity-based, [14C]CO2 release. On the procedure: In vitro hydroxylation assay. The in vitro hydroxylation assay was modified from a previously described assay based on the fact that hydroxylation by PHDs results in decarboxylation of […]-ketoglutarate to form carbon dioxide. Briefly, […] reactions were performed in glass vials sealed with rubber stoppers and parafilm wax. Reaction mixtures containing 12.5 nmol synthetic peptide (Peptide 2.0), 50 mM Tris/HCl (pH 7.8), 2 mg/ml BSA, 4200 U/ml catalase, 0.1 mM DTT, 2 mM ascorbate, 500 μM FeSO4·7H2O, 0.02 μmol [1-^14C][…]-ketoglutarate (Perkin Elmer) and 1.2 μg recombinant PHD3 were incubated at 370 for 30 min. Reactions were stopped by injection of 0.25 ml of 1 M KH2PO4 (pH 5) into vials. Vials were agitated on slow speed for 30 min at room temperature to allow capture of [^14C]CO2 onto solubilized Whatman paper positioned at the top of the vials. CPM were measured by scintillation counts on filter paper.

Entries after “also recorded” stand apart in the source; their conditions may differ.

Chain of recombinant PHD3 (Q9H6Z9 whole entry): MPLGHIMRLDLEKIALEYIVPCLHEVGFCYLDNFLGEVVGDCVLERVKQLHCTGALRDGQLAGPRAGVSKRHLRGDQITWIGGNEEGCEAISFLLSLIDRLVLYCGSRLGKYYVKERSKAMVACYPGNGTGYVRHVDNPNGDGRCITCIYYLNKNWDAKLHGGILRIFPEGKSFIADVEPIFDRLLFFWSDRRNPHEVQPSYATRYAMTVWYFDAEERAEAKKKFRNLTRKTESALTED
T1 sequence (O00763 whole entry): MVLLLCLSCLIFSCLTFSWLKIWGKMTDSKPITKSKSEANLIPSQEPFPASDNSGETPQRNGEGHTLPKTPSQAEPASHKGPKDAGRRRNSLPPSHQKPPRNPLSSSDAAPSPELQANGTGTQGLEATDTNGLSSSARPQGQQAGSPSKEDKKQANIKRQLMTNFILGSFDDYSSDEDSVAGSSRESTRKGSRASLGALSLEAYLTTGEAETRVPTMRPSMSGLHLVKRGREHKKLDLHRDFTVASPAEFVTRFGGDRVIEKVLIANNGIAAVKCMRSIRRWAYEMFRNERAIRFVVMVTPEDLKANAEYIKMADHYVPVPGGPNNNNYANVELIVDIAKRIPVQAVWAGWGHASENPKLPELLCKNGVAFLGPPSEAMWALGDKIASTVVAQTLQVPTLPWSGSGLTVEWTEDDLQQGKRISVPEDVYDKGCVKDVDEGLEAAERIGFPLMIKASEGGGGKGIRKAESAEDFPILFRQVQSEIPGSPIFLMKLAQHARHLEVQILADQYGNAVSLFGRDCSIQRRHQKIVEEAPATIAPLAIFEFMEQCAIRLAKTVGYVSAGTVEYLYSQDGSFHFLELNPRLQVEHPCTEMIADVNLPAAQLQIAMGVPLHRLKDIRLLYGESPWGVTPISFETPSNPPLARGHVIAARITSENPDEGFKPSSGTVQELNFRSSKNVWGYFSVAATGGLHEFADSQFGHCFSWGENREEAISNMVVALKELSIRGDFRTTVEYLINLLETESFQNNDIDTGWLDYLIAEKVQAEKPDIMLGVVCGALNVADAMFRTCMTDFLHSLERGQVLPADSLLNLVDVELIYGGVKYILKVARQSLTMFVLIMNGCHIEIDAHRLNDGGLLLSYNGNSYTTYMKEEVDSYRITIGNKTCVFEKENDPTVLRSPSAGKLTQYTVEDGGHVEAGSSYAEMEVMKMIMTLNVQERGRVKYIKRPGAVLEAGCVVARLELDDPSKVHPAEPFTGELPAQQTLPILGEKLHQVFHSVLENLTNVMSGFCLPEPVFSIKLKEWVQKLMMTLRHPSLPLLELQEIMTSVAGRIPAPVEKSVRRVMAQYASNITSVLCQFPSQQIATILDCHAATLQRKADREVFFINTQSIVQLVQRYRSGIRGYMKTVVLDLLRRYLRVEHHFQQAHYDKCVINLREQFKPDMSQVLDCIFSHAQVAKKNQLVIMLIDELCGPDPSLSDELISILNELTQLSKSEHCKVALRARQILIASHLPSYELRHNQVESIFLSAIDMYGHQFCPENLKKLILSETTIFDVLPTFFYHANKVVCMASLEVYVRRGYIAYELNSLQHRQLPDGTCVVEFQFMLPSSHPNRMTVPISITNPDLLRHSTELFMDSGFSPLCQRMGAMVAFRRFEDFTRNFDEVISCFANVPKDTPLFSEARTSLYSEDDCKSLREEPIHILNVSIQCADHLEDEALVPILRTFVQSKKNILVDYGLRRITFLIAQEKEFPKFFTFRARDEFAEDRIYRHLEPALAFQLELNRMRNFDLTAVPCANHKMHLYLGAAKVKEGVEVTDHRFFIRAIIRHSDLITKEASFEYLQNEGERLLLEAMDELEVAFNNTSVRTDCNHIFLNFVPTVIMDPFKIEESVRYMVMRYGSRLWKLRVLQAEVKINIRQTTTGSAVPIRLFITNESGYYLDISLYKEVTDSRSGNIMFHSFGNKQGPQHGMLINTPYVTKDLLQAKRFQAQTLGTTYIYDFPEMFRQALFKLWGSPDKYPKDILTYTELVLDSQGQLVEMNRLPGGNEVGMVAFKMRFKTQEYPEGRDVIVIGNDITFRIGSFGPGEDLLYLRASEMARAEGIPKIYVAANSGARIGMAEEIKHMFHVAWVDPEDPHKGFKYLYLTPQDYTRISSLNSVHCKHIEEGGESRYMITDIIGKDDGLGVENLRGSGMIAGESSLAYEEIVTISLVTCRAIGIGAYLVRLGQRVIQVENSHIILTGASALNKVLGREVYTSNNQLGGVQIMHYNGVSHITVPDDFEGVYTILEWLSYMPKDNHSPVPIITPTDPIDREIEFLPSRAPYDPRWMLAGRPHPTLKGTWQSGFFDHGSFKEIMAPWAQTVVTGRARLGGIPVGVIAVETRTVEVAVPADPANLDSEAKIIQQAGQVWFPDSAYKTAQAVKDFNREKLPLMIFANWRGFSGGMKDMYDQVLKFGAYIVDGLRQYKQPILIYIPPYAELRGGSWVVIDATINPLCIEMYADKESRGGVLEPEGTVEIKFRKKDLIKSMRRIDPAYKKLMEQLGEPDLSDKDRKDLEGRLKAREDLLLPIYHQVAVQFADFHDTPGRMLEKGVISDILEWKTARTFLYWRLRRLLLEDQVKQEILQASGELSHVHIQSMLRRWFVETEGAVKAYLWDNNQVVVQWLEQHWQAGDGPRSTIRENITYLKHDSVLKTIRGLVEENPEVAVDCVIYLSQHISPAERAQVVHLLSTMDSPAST

`CC(C)(C)c1ccc(N2C[C@@H](COc3ccc(C(=O)O)cc3)CC2=O)cc1` [S2E]: the “palmitate oxidation (FAO)” value in the assay on MOLM14 cells [1] is “increases palmitate oxidation; also recorded: amplified FAO”. Further, the “cell growth at 72 h” value with MOLM14 cells [2] is listed as “restores cell growth; also recorded: rescued Molm14 cell growth”.
In the case of `O=C(O)CC(O)(CC(=O)O)C(=O)O` [citrate], on ACC2, the ACC activity result is “activated”.
For the compound `COC(=O)CCC(=O)C(=O)OC` [dimethyl ketoglutarate], the palmitate oxidation result in the assay on 293T cells is on record as “repressed palmitate oxidation”.
As for `CCOC(=O)[C@@]1(CCCCCCOc2ccc(Cl)cc2)CO1` [etomoxir], the “repression of FAO (palmitate oxidation)” value with HepG2 cells is “over 50%”. The “sensitivity (viability)” value in the assay with KU812 is reported as “sensitive”. The cell viability result in the assay with low-PHD3 leukemia cells is recorded as “substantial cell death”.
For the compound `CN(C)C(=N)N=C(N)N` [metformin], the “colony formation (growth)” value is on record as “improved growth; also recorded: partially rescues” with MOLM14 cells [3] and “partially blocks the growth inhibitory effects” in the assay with MOLM14 cells [3] (listed as Metformin). Further, the “cell growth in soft agar” value in the assay with MOLM14 cells [3] (metformin on its own, 1 mM) is listed as “impaired cell growth”. Besides, the “cell growth at 72 h” value with MOLM14 cells [2] is on record as “trend toward rescued growth”.
Regarding `COc1ccccc1OCC(O)CN1CCN(CC(=O)Nc2c(C)cccc2C)CC1` (centres unmarked) [ranolazine], the cell viability result in the assay on K562 leukemia cells is recorded as “viability was largely maintained”; in the assay with low-PHD3 leukemia cells, “drastically reduced cell viability”. Moreover, in the assay with MEGO1, the “sensitivity (viability)” value is “less sensitive”.
As to “AGQVWFPDSAYKTAQ [peptide containing P2131]”, the “hydroxylation by recombinant PHD3” value in the assay with recombinant PHD3 is given as “not”.
ARLELDDPSKVHPAE: the “hydroxylation by recombinant PHD3” value on recombinant PHD3 is recorded as “not”.
Take “ERIGFPLMIKASEGGGGK [ACC2 peptide containing P450]”: the “hydroxylation by recombinant PHD3” value with recombinant PHD3 is listed as “shown to hydroxylate”.
